Experimental data reported in patent US20230295234A1, “ANTIMICROBIAL PEPTIDOMIMETICS” (SPEXIS AG, priority 2020, published 2023).
Bridge positions count the residues as written; N and C are the ends. Square brackets hold non-standard residues; d marks the D form. Triazole bridges read from a SMILES are 1,4-linked. Peptide text beside a SMILES is read from it. Aha = [N-]=[N+]=NCC[C@H](N)C(=O)O; Hyp = O=C(O)[C@@H]1C[C@@H](O)CN1; dDab = NCC[C@@H](N)C(=O)O; Pra = C#CC[C@H](N)C(=O)O; Dab = NCC[C@H](N)C(=O)O

Experiments:
[1] = system: Escherichia coli ATCC 25922; conditions: ATCC 25922
Summary of the method: (§1)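 Standardized inocula (0.5 McFarland in saline, then diluted in MHII broth to approximately 5×10^5 CFU/mL) were exposed to two-fold dilution series of each peptide in the presence of polysorbate 80 (0.002% final).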

[2] = system: Escherichia coli MCR-1 Af 45; conditions: Mueller-Hinton broth II, 18-20 hours at 35° C.
Summary of the method: as §1

[3] = system: Klebsiella pneumoniae SSI3010; conditions: SSI3010
Summary of the method: as §1

[4] = system: human red blood cells (hRBC); test: Hemolysis of human red blood cells; format: cell-based; conditions: red cells of human, 1 h
Summary of the method: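 Percent hemolysis is OD540 of peptide-treated supernatant relative to water-lysed cells. Each peptide was tested at 200 μg/mL against 20% (v/v) washed human erythrocytes. Incubation was 1 h at 37 °C, 300 rpm.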

| SMILES | Escherichia coli ATCC 25922 MIC [1] [mg/L] | Escherichia coli MCR-1 Af 45 MIC [2] [mg/L] | Klebsiella pneumoniae SSI3010 MIC [3] [mg/L] | Hemolysis at 0.2 g/L [4] [%] |
| --- | --- | --- | --- | --- |
| CC[C@H](C)[C@H](NC(=O)[C@@H](NC(=O)[C@@H]1CCCN1C(=O)[C@@H](N=C(N(C)C)N(C)C)C(C)C)[C@@H](C)CC)C(=O)N[C@@H](Cc1ccc(O)cc1)C(=O)N[C@H]1CSSC[C@@H](C(=O)N[C@@H](CCN)C(=O)N[C@@H](CCCNC(=N)N)C(=O)N[C@@H](Cc2ccc(O)cc2)C(=O)O)NC(=O)[C@H](CCCCN)NC(=O)[C@@H](CCN)NC(=O)[C@H]([C@@H](C)O)NC(=O)[C@H](CCN)NC(=O)[C@H](CCCNC(=N)N)NC(=O)[C@H](CC(N)=O)NC1=O [Example 202] (HELM PEPTIDE1{[CC(C)[C@H](N=C(N(C)C)N(C)C)C(=O)[*:2]].P.I.I.Y.C.N.R.[Dab].T.[NCC[C@@H](N[*:1])C(=O)[*:2]].K.C.[Dab].R.Y}$PEPTIDE1,PEPTIDE1,6:R3-13:R3$$$V2.0) | 0.0625 | 0.0625 | 0.25 | 0 |
| CC[C@H](C)[C@H](NC(=O)[C@@H]1C[C@@H](O)CN1C(=O)[C@@H](N=C(N(C)C)N(C)C)C(C)C)C(=O)N[C@H](C(=O)N[C@@H](Cc1ccc(O)cc1)C(=O)N[C@@H]1C(=O)N[C@@H](CC(N)=O)C(=O)N[C@@H](CCCNC(=N)N)C(=O)N[C@@H](CCN)C(=O)N[C@@H]([C@@H](C)O)C(=O)N[C@H](CCN)C(=O)N[C@@H](CCCCN)C(=O)N[C@H](C(=O)N[C@@H](CCN)C(=O)N[C@@H](CCCNC(=N)N)C(=O)N[C@@H](Cc2ccc(O)cc2)C(=O)O)CSSC1(C)C)[C@@H](C)O [Example 203] (HELM PEPTIDE1{[CC(C)[C@H](N=C(N(C)C)N(C)C)C(=O)[*:2]].[Hyp].I.T.Y.[Pen].N.R.[Dab].T.[NCC[C@@H](N[*:1])C(=O)[*:2]].K.C.[Dab].R.Y}$PEPTIDE1,PEPTIDE1,6:R3-13:R3$$$V2.0) | 0.25 | 0.125 | 0.5 | 0 |
| CC[C@H](C)[C@H](NC(=O)[C@@H](NC(=O)[C@@H]1C[C@@H](O)CN1C(=O)[C@@H](N)C(C)C)[C@@H](C)CC)C(=O)N[C@@H](Cc1ccc(O)cc1)C(=O)N[C@H]1Cc2cn(nn2)CC[C@@H](C(=O)N[C@@H](CCN)C(=O)N[C@@H](CCCNC(=N)N)C(=O)N[C@@H](Cc2ccc(O)cc2)C(=O)O)NC(=O)[C@H](CCCCN)NC(=O)[C@@H](CCN)NC(=O)[C@H]([C@@H](C)O)NC(=O)[C@H](CCN)NC(=O)[C@H](CCCNC(=N)N)NC(=O)[C@H](CC(N)=O)NC1=O [Example 204] (H-V[Hyp]IIY[Pra]NR[Dab]T[dDab]K[Aha][Dab]RY-OH; triazole 6-13) | 0.25 | 0.25 | 2 | 0 |
| CC[C@H](C)[C@H](NC(=O)[C@@H](NC(=O)[C@@H]1C[C@@H](O)CN1C(=O)[C@@H](N)C(C)C)[C@@H](C)CC)C(=O)N[C@@H](Cc1ccc(O)cc1)C(=O)N[C@H]1CC(=O)NCC[C@@H](C(=O)N[C@@H](CCN)C(=O)N[C@@H](CCCNC(=N)N)C(=O)N[C@@H](Cc2ccc(O)cc2)C(=O)O)NC(=O)[C@H](CCCCN)NC(=O)[C@@H](CCN)NC(=O)[C@H]([C@@H](C)O)NC(=O)[C@H](CCN)NC(=O)[C@H](CCCNC(=N)N)NC(=O)[C@H](CC(N)=O)NC1=O [Example 205] (HELM PEPTIDE1{V.[Hyp].I.I.Y.D.N.R.[Dab].T.[NCC[C@@H](N[*:1])C(=O)[*:2]].K.[Dab].[Dab].R.Y}$PEPTIDE1,PEPTIDE1,6:R3-13:R3$$$V2.0) | 0.125 | 0.125 | 0.25 | 0 |
